# Source: ChEMBL document CHEMBL5352484, “Discovery of a potent and long-acting Xenopus GLP-1-based GLP-1/glucagon/Y2 receptor triple agonist” (Eur J Med Chem, 2023)
# Calls of active or inactive are those of the source. The rule behind the calls is not given here.
# Assays:
# [1] = biological target: Glucagon-like peptide 1 receptor (Homo sapiens, UniProt P43220); assay: Agonist activity at GLP-1R (unknown origin) expressed in HEK293 cells assessed as cAMP accumulation incubated for 30 mins by HTRF method; assay type: functional, cell-based
# Chain of Glucagon-like peptide 1 receptor (P43220 whole entry): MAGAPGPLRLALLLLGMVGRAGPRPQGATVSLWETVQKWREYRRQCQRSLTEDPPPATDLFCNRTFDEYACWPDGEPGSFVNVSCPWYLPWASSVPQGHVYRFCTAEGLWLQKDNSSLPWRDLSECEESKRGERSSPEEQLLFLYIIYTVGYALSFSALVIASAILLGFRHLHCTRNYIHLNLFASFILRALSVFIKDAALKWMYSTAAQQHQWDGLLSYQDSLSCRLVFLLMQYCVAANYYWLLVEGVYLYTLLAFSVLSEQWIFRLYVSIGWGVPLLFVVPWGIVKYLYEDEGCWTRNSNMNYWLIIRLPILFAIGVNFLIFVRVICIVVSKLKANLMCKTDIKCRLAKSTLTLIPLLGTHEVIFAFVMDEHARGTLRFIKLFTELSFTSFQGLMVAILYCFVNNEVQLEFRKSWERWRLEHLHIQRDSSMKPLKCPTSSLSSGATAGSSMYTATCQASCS
# Glucagon receptor = Glucagon receptor (Homo sapiens, UniProt P47871); assay: Agonist activity at GCGR (unknown origin) expressed in HEK293 cells assessed as cAMP accumulation incubated for 30 mins by HTRF method; assay type: functional, cell-based
# Chain of Glucagon receptor (P47871 whole entry): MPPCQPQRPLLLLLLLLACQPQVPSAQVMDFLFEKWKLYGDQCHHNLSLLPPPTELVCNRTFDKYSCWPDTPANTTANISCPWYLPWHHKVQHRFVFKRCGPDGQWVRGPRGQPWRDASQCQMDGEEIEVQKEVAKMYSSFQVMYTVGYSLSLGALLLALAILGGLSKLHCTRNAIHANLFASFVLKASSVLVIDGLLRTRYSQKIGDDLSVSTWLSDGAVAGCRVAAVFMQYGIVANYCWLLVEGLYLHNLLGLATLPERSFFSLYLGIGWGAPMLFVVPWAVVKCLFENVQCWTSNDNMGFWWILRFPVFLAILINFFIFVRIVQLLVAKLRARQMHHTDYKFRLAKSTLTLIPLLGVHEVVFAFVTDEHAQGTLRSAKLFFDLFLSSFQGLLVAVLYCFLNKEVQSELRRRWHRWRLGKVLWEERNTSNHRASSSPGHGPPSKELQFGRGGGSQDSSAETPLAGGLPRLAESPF
# Mus musculus [2] = assay: Hypoglycemic activity in ICR mouse assessed as decrease in blood glucose level at 30 nmol/kg, ip pretreated for 30 mins followed by glucose addition and measured upto 120 mins in presence of 60 nmol/kg Lys7(C16-gammaGlu)PYY3-36 by OGTT; assay type: functional, organism-based; conditions: time <= 150.0 min
# Mus musculus [3] = assay: Reduction in serum AST level in C57BL/6J mouse at 30 nmol/kg, sc administered for 21 days; assay type: functional, organism-based; conditions: time 21.0 day
# Mus musculus [4] = assay: Antiobesity activity in ICR mouse assessed as reduction in food intake at […], sc measured upto 24 hrs; assay type: functional; design: scale not given: the % may be the effect or the level left
# Mus musculus [5] = assay: Hypoglycemic activity in ICR mouse at 30 nmol/kg, ip pretreated with Jant-4 for 30 mins prior to compound addition for 30 mins followed by glucose addition and measured upto 120 mins by OGTT; assay type: functional, organism-based; conditions: time <= 150.0 min
# Mus musculus [6] = assay: Antiobesity activity in C57BL/6J mouse assessed as reduction in body weight at 10 nmol/kg, sc after 21 days; assay type: functional; design: scale not given: the % may be the effect or the level left; conditions: time 21 day
# Mus musculus [7] = assay: Antiobesity activity in ICR mouse assessed as reduction in body weight at 30 nmol/kg, sc administered twice daily; assay type: functional; design: scale not given: the % may be the effect or the level left
# Mus musculus [8] = assay: Anti-diabetic activity in C57BL/6J mouse model of high-fat diet induced obesity assessed as improved in glucose tolerance at 30 nmol/kg, sc administered twice daily for 7 days in presence of 60 nmol/kg Lys7(C16-gammaGlu)PYY3-36; assay type: functional, organism-based; conditions: time 7.0 day
# Mus musculus [9] = assay: Anti-obesity activity in C57BL/6J mouse model of high-fat diet induced obesity assessed as decrease in food intake at 30 nmol/kg, sc administered twice daily for 7 days in presence of 60 nmol/kg Lys7(C16-gammaGlu)PYY3-36; assay type: functional, organism-based; conditions: time 7.0 day
# Mus musculus [10] = assay: Hypoglycemic activity in ICR mouse assessed as decrease in blood glucose level at 30 nmol/kg, ip pretreated for 30 mins followed by glucose addition and measured upto 120 mins by OGTT; assay type: functional, organism-based; conditions: time <= 150.0 min
# Mus musculus [11] = assay: Reduction in serum ALT level in C57BL/6J mouse at 30 nmol/kg, sc administered for 21 days; assay type: functional, organism-based; conditions: time 21.0 day
# Mus musculus [12] = assay: Hypoglycemic activity in ICR mouse at 30 nmol/kg, ip pretreated with JNJ-31020028 for 30 mins prior to compound addition for 30 mins followed by glucose addition and measured upto 120 mins by OGTT; assay type: functional, organism-based; conditions: time <= 150.0 min
# Mus musculus [13] = assay: Antiobesity activity in ICR mouse assessed as reduction in food intake at […], sc measured upto 24 hrs in presence of Lys7(C16-gammaGlu)PYY3-36; assay type: functional; design: scale not given: the % may be the effect or the level left
# Mus musculus [14] = assay: Reduction in liver TC level in C57BL/6J mouse at 30 nmol/kg, sc administered for 21 days; assay type: functional, organism-based; conditions: time 21.0 day
# Mus musculus [15] = assay: Hypoglycemic activity in ICR mouse assessed as reduction in glucose excursion at 30 nmol/kg, ip measured upto 120 mins; assay type: functional, organism-based
# Mus musculus [16] = assay: Reduction in saccharin consumption in ip dosed ICR mouse assessed as reduction in saccharin preference ratio pretreated for 40 mins with saccharin followed by compound addition; assay type: functional, organism-based
# Mus musculus [17] = assay: Anti-obesity activity in C57BL/6J mouse model of high-fat diet induced obesity assessed as decrease in body weight at 30 nmol/kg, sc administered twice daily for 7 days in presence of 60 nmol/kg Lys7(C16-gammaGlu)PYY3-36; assay type: functional; design: scale not given: the % may be the effect or the level left; conditions: time 7 day
# Mus musculus [18] = assay: Anti-obesity activity in C57BL/6J mouse model of high-fat diet induced obesity assessed as decrease in body weight at 30 nmol/kg, sc administered twice daily for 7 days; assay type: functional; design: scale not given: the % may be the effect or the level left; conditions: time 7 day
# Mus musculus [19] = assay: Reduction in liver TG level in C57BL/6J mouse at 30 nmol/kg, sc administered for 21 days; assay type: functional, organism-based; conditions: time 21.0 day
# Mus musculus [20] = assay: Anorexigenic effect in ICR mouse assessed as inhibition of food intake at 30 nmol/kg, ip pretreated with Jant-4 for 30 mins followed by compound addition for 30 mins; assay type: functional, organism-based
compound,measurement,setting,value
CC[C@H](C)[C@H](NC(=O)[C@H](Cc1ccccc1)NC(=O)[C@H](CC(=O)O)NC(=O)[C@H](CCC(N)=O)NC(=O)[C@H](C)NC(=O)[C@H](CCCNC(=N)N)NC(=O)[C@H](CCCNC(=N)N)NC(=O)[C@H](CO)NC(=O)[C@H](CC(=O)O)NC(=O)[C@H](CCCCN)NC(=O)[C@H](Cc1ccc(O)cc1)NC(=O)[C@H](CCCCN)NC(=O)[C@H](CO)NC(=O)[C@@H](NC(=O)[C@H](CC(=O)O)NC(=O)[C@H](CC(N)=O)NC(=O)[C@@H](NC(=O)[C@H](Cc1ccc(O)cc1)NC(=O)[C@@H](NC(=O)CNC(=O)[C@H](CCC(N)=O)NC(=O)[C@@H](CO)NC(=O)[C@@H](N)Cc1c[nH]cn1)[C@@H](C)O)[C@@H](C)O)C(C)C)C(=O)N[C@@H](CCC(=O)O)C(=O)N[C@@H](Cc1c[nH]c2ccccc12)C(=O)N[C@@H](CC(C)C)C(=O)N[C@@H](CCCCN)C(=O)N[C@@H](CC(N)=O)C(=O)NCC(=O)NCC(=O)N1CCC[C@H]1C(=O)N[C@@H](CO)C(=O)N[C@@H](CO)C(=O)NCC(=O)N[C@@H](C)C(=O)N1CCC[C@H]1C(=O)N1CCC[C@H]1C(=O)N1CCC[C@H]1C(=O)N[C@@H](CO)C(=O)N[C@@H](CS)C(N)=O,EC50,[1],0.048 nM
same,EC50,Glucagon receptor,0.19 nM
CC[C@H](C)[C@H](NC(=O)[C@H](Cc1ccccc1)NC(=O)[C@H](CC(=O)O)NC(=O)[C@H](CCC(N)=O)NC(=O)[C@H](C)NC(=O)[C@H](CCCNC(=N)N)NC(=O)[C@H](CCCNC(=N)N)NC(=O)[C@H](CO)NC(=O)[C@H](CC(=O)O)NC(=O)[C@H](CCCCN)NC(=O)[C@H](CCC(N)=O)NC(=O)[C@H](CCCCN)NC(=O)[C@H](CO)NC(=O)[C@H](CC(C)C)NC(=O)[C@H](CC(=O)O)NC(=O)[C@H](CO)NC(=O)[C@@H](NC(=O)[C@H](Cc1ccccc1)NC(=O)[C@@H](NC(=O)CNC(=O)[C@H](CCC(N)=O)NC(=O)[C@@H](CO)NC(=O)[C@@H](N)Cc1c[nH]cn1)[C@@H](C)O)[C@@H](C)O)C(=O)N[C@@H](CCC(=O)O)C(=O)N[C@@H](Cc1c[nH]c2ccccc12)C(=O)N[C@@H](CC(C)C)C(=O)N[C@@H](CCCCN)C(=O)N[C@@H](CC(N)=O)C(=O)NCC(=O)NCC(=O)N1CCC[C@H]1C(=O)N[C@@H](CO)C(=O)N[C@@H](CO)C(=O)NCC(=O)N[C@@H](C)C(=O)N1CCC[C@H]1C(=O)N1CCC[C@H]1C(=O)N1CCC[C@H]1C(=O)N[C@@H](CO)C(=O)N[C@@H](CS)C(N)=O,EC50,[1],0.087 nM
same,EC50,Glucagon receptor,0.42 nM
CCCCCCCCCCCCCCCC(=O)N[C@@H](CCC(=O)NCCCC[C@H](NC(=O)[C@H](Cc1ccc(O)cc1)NC(=O)[C@H](CCCCN)NC(=O)[C@H](CO)NC(=O)[C@@H](NC(=O)[C@H](CC(=O)O)NC(=O)[C@H](CC(N)=O)NC(=O)[C@@H](NC(=O)[C@H](Cc1ccc(O)cc1)NC(=O)[C@@H](NC(=O)CNC(=O)[C@H](CCC(N)=O)NC(=O)[C@@H](CO)NC(=O)[C@@H](N)Cc1c[nH]cn1)[C@@H](C)O)[C@@H](C)O)C(C)C)C(=O)N[C@@H](CC(=O)O)C(=O)N[C@@H](CO)C(=O)N[C@@H](CCCNC(=N)N)C(=O)N[C@@H](CCCNC(=N)N)C(=O)N[C@@H](C)C(=O)N[C@@H](CCC(N)=O)C(=O)N[C@@H](CC(=O)O)C(=O)N[C@@H](Cc1ccccc1)C(=O)N[C@H](C(=O)N[C@@H](CCC(=O)O)C(=O)N[C@@H](Cc1c[nH]c2ccccc12)C(=O)N[C@@H](CC(C)C)C(=O)N[C@@H](CCCCN)C(=O)N[C@@H](CC(N)=O)C(=O)NCC(=O)NCC(=O)N1CCC[C@H]1C(=O)N[C@@H](CO)C(=O)N[C@@H](CO)C(=O)NCC(=O)N[C@@H](C)C(=O)N1CCC[C@H]1C(=O)N1CCC[C@H]1C(=O)N1CCC[C@H]1C(=O)N[C@@H](CO)C(N)=O)[C@@H](C)CC)C(=O)O,Activity,Mus musculus [2],Active
same,Activity,Mus musculus [3],Active
same,Activity,Mus musculus [4],35%
same,Activity,Mus musculus [5],inactive
same,Activity,Mus musculus [6],27%
same,Activity,Mus musculus [7],15.6%
same,Activity,Mus musculus [8],Active
same,Activity,Mus musculus [9],Active
same,Activity,Mus musculus [10],Active
same,Activity,Mus musculus [11],Active
same,Activity,Mus musculus [12],inactive
same,Activity,Mus musculus [13],66%
same,Activity,Mus musculus [14],Active
same,Activity,Mus musculus [15],Active
same,Activity,Mus musculus [16],Dose-Dependent Effect
same,Activity,Mus musculus [17],28.5%
same,Activity,Mus musculus [18],16.6%
same,Activity,Mus musculus [19],Active
same,Activity,Mus musculus [20],inactive
